Assay results: article PMC5314971 (Bioorganic & medicinal chemistry letters, 2017)

Columns and labels:
[1] = test system: acetylated tubulin in B16F10 cells; test: western blot for accumulation of acetylated tubulin in B16F10 cells; format: cell-based
B16F10 [2] = test: verapamil; conditions: B16F10, verapamil at 100 µM, data not shown
B16F10 [3] = test: antiproliferation study, B16F10 melanoma cell line
HDAC1 = HDAC1 (Homo sapiens, UniProt Q13547); test: cell-free HDAC isoform inhibition assay, HDAC1
Sequence of HDAC1 (Q13547 whole entry, species assumed, canonical isoform): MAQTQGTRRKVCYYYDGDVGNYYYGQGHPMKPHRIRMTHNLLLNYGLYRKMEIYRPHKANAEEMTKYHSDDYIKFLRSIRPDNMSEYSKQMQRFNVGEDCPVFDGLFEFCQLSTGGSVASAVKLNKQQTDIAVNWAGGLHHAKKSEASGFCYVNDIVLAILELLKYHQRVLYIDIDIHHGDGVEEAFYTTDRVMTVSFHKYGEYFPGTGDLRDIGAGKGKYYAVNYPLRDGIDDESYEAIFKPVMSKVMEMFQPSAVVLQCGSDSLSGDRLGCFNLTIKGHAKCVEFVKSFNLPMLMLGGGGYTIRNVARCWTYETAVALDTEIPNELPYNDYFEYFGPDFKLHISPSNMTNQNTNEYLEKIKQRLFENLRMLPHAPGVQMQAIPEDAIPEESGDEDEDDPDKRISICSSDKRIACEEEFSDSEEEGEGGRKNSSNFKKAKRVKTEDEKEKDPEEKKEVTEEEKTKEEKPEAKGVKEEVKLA

A375 = test: antiproliferation study, A375 melanoma cell line; conditions: SAHA as control HDACi
[4] = phase II clinical trial; ref 3a; cited from earlier work
[5] = increasing drug concentrations (5–50 µM)

COc1ccc2cc(-c3cn(CCCCCC(=O)NO)nn3)ccc2c1 [7u, reference compound]
accumulation of acetylated tubulin ([1]; 20 µM): significant accumulation of acetylated tubulin

CCN(CC)CCNC(=O)c1ccc(-c2cn(CCCCCCC(=O)NO)nn2)cc1 [10a]
effect of verapamil co-treatment on cytotoxic effect (B16F10 [2]): did not improve the cytotoxic effect
fold less active relative to SAHA against B16F10 (B16F10 [3]; SAHA as control HDACi): about 3 fold
selectivity for HDAC1 compared to HDAC6 (HDAC1): about four-fold
accumulation of acetylated tubulin [1, 5]: gave a similar effect
fold less active relative to SAHA against A375 (A375): ~6 fold

CCN(CC)CCNC(=O)c1ccc(-c2cn(CCCCCC(=O)NO)nn2)cn1 [11a]
selectivity for HDAC1 compared to HDAC6 (HDAC1): almost indistinguishable

CCN(CC)CCNC(=O)c1ccc(-c2cn(CCCCCCC(=O)NO)nn2)cn1 [11b]
effect of verapamil co-treatment on cytotoxic effect (B16F10 [2]): did not improve the cytotoxic effect

CCN(CC)CCNC(=O)c1ccc(I)cc1 [N-(2-(diethylamino)ethyl)-4-iodobenzamide]
toxicity to the patients [4]: little toxicity

O=C(CCCCCCC(=O)Nc1ccccc1)NO [SAHA, reference compound]
accumulation of acetylated tubulin ([1]; 20 µM): significant accumulation of acetylated tubulin

CCN(CC)CCNC(=O)c1ccc(C(=O)ONC(=O)CCCCCn2cc(-c3ccc4cc(OC)ccc4c3)nn2)cc1 [compound 14]
growth inhibitory effect compared with compound 10a (B16F10 [3]; B16F10, at 50 µM (Fig. 4)): much more potent than compound 10a
growth inhibitory effect compared with compound 10a (B16F10 [3]; B16F10, dosed at 25 µM (Fig. 4)): same level of potency as compound 10a
accumulation of acetylated tubulin [1, 5]: increase in the level of acetylated tubulin in a concentration dependent manner
